# Numbered stars: 1 amine (or outer) side, 2 acyl side, 3 side chain; on linkers, the order of the positions; unused ones are H or OH. Bridge positions count the residues as written; N and C are the ends. Square brackets hold non-standard residues; d marks the D form. Peptide text beside a SMILES is read from it. Phe(4-(Z)-phenylazo) = N[C@@H](Cc1ccc(/N=N\c2ccccc2)cc1)C(=O)O; AMPB(E) = O=C(c1ccc(/N=N/c2ccc(CN[*:1])cc2)cc1)[*:2]; X1 = O=C([C@H](Cc1ccc(/N=N/c2ccccc2)cc1)N[*:1])[*:2]; X2 = O=C(c1ccc(/N=N\c2ccc(CN[*:1])cc2)cc1)[*:2]
# Legend:
# hOTR = molecular target: T1, hOTR (Homo sapiens, UniProt P30559); assay: IP-One accumulation assay, agonist function, HEK293 cells expressing hOTR; type: cell-based; settings: for EC50: IP-One, stable HEK293 hOTR, E = thermal equilibrium, Z = PSS after 340 nm, read-out: OTR EC50 ± SEM; for OTR E/Z ratio EC50: ratio of EC50 of E- and Z-isomer; for Emax: HEK293, relative to the effect of OT, read-out: OTR Emax ± SEM; for decrease in potency compared to OT at OTR: EC50 vs OT
# T1 construct: expressed in transfected cells
# T1 sequence (P30559 1-389): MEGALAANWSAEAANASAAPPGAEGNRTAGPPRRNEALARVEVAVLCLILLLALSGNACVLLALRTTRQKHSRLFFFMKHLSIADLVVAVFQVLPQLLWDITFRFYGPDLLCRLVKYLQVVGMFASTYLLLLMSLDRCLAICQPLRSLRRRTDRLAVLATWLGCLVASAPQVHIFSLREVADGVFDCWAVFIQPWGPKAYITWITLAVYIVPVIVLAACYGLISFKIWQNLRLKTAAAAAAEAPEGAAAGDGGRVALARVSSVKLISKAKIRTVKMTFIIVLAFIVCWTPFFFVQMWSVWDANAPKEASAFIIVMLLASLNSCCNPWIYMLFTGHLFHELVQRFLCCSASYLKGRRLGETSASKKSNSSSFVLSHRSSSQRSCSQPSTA
# [1] = Photostationary state by analytical C18-RP-HPLC; type: physicochemical; settings: for PSS (E → Z): irradiation with 340 nm, HEPES buffer; for PSS (Z → E): irradiation with 420 nm (8–17) or 528 nm (18, 19)
# Protocol: All photoprobes were investigated regarding their photophysical properties in aqueous buffer (pH 7.5), mimicking the conditions of the biological functional assays.
# 1.3.2. Photostationary States
# Photostationary states (PSS) were measured on analytical C18-RP-HPLC (flow: 0.3 mL/min, solvent A: H2O (0.05% TFA), solvent B: MeCN). To determine the PSS of the photoswitches, the samples (in 0.1 mM in HEPES buffer + 1% DMSO, pH 7.5) were irradiated first with 340 nm to get the Z-isomer. Afterwards, the sample was irradiated with 420 nm (8-17) or 528 nm (18 and 19), respectively, to get back to the E-isomer. The samples were measured at the isosbestic points.
# [2] = Thermal half-life of the Z-isomer (UV/vis, 96-well plate); type: physicochemical; settings: 25 °C; for t1/2 (thermal half-life, Figure S50): 50 µM in HEPES buffer + 0.25% DMSO, pre-irradiated with 340 nm; for t1/2 (thermal half-life Z to E): preirradiation with 340 nm, HEPES buffer pH 7.4
# From the text: All photoprobes were investigated regarding their photophysical properties in aqueous buffer (pH 7.5), mimicking the conditions of the biological functional assays. […] Upon irradiation with 340 nm light for 10 s and monitoring via UV/vis spectroscopy, all compounds could be switched to the Z-isomer, reaching the photostationary state (PSS). Compounds 8–17 containing azobenzene could be switched back to the E-isomer by irradiation at 420 nm for 60 s. Compounds 18 and 19 containing arylazopyrazole could be reverted to the E isomer by using 528 nm light. […] The PSS, when switched to the Z-isomer, was consistently good, with a PSS of 81–95%. […] The thermal half-lives of 10 and 12 were also measured at 37 °C, representing the temperature during the biological assays. As expected, the thermal half-lives decreased, however, the ratio of E and Z isomers remained stable during the incubation period of the biological assays (1 h).
# Starting materials and commercial reagents were purchased from Acros, Alfa Aesar, Fisher, Fluka, Fluorochem, Merck (Sigma-Aldrich), TCI and VWR and were used without further purification. Solvents were used in p.a. quality or dried according to common procedures if necessary. All reactions with oxygen- or moisture-sensitive reagents were carried out in glassware that was dried before use by heating under vacuum. Dry nitrogen or argon was used for an inert gas atmosphere. All NMR spectra were measured at room temperature (20 °C) using a Bruker Avance 400 (400 MHz for ^1H and 101 MHz for ^13C) or a Bruker Avance 600 (600 MHz for ^1H and 151 MHz for ^13C) NMR spectrometer. All chemical shifts are reported in δ-scale as parts per million [ppm] (multiplicity, coupling constant J, number of protons) relative to the solvent residual peaks. Coupling constants J are given in hertz [Hz]. Abbreviations used for signal multiplicity: ^1H NMR: s = singlet, d = doublet, dd = doublet of doublets, ddd = doublet of doublets of doublets, dt = doublet of triplets, t = triplet, td = triplet of doublets, q = quartet, and m = multiplet. All mass spectra were recorded on an Agilent Q-TOF 6540 UHD, Finnigan MAT SSQ 710 A, Jeol AccuTOF GCX or ThermoQuest Finnigan TSQ 7000 spectrometer. Absorption spectra were recorded on an UV/vis Agilent Cary 50 spectrometer. Thermal half-lives were measured on a 96-well plate in a Thermo Scientific Multiskan Spectrum. Analytical TLC was performed on silica gel-coated alumina plates (MN precoated TLC-sheets ALUGRAM Xtra SIL G/UV254). Visualization was done using UV light (254 or 366 nm) or staining with ninhydrin solution. Column chromatography was performed on a Biotage Isolera One automated flash purification system with a UV/vis detector. Analytical RP-HPLC was carried out on an Agilent 1220 Infinity LC System (column: P/No 00F-4251-B0, Phenomenex Luna 3 μm C18(2) 100 Å, LC column 150 mm × 2.0 mm). Purification by preparative HPLC was conducted on a preparative HPLC Agilent 1260 Infinity LC System [column: P/No 00G-4253-P0-AX, Phenomenex Luna 10 μm C18(2) 100 Å, LC column 250 mm × 21.2 mm]. The eluent systems were used as specified. After the purification process, solvents were removed by lyophilization. Switching experiments were done with a 340 nm LED (SSC VIOSYS CUD4AF1B, 500 mA, 55 mW), 420 nm LED (ILH-XC01-S410-SC211-WIR200, 800 mA, 440 mW), and 528 nm LED (OSRAM Oslon SSL 80 green, 500 mA, 34 mW). Purity of all photoprobes was >95% as determined by analytical RP-HPLC at 220 nm in DMSO.
# 1.3.4. Thermal Half-lives
# Thermal half-lives were measured in a 96-well plate in a Thermo Scientific Multiskan® Spectrum at 25 °C (and at 37 °C for compounds 10 and 12). The solutions (50 µM in HEPES buffer + 0.25% DMSO) were pre-irradiated with 340 nm. The absorption at 335 nm was measured every 3 h. The data was analyzed using Origin 2021.
# 0,7 1/2 ExpDec1 Fit of Sheet1 B
# Modell ExpDec1 0,35 Modell ExpDec1
# 0,6 Gleichung y = A 1 *e xp (-x/t1 ) + y0 Gleichung y = A 1 *e xp (-x/t1 ) + y0 […]
Compound,EC50 (hOTR),OTR E/Z ratio EC50 (hOTR),OTR Emax ± SEM (hOTR; relative to the effect of OT),Emax (hOTR),decrease in potency compared to OT at OTR (hOTR),PSS (E → Z) [1],PSS (Z → E) [1],"t1/2 (thermal half-life, Figure S50) [2]",t1/2 (thermal half-life Z to E) [2]
CC[C@H](C)[C@@H]1NC(=O)[C@H](Cc2ccc(/N=N/c3ccccc3)cc2)NC(=O)[C@@H](N)CSSC[C@@H](C(=O)N2CCC[C@H]2C(=O)N[C@@H](CC(C)C)C(=O)NCC(N)=O)NC(=O)[C@H](CC(N)=O)NC(=O)[C@H](CCC(N)=O)NC1=O [E-8] (H-C[X1]IQNCPLG-NH2; disulfide 1-6),4500 ± 1010 nM,1.3,45 ± 3%,–,–,–,–,–,–
CC[C@H](C)[C@@H]1NC(=O)[C@H](Cc2ccc(O)cc2)NC(=O)[C@@H](N)CSSC[C@@H](C(=O)N[C@@H](Cc2ccc(/N=N/c3ccccc3)cc2)C(=O)N[C@@H](CC(C)C)C(=O)NCC(N)=O)NC(=O)[C@H](CC(N)=O)NC(=O)[C@H](CCC(N)=O)NC1=O [E-9] (H-CYIQNC[X1]LG-NH2; disulfide 1-6),346 ± 30 nM,2.5,–,89 ± 1%,–,–,–,–,–
CC[C@H](C)[C@@H]1NC(=O)[C@H](Cc2ccc(O)cc2)NC(=O)[C@@H](N)CSSC[C@@H](C(=O)NCc2ccc(/N=N/c3ccc(C(=O)NCC(N)=O)cc3)cc2)NC(=O)[C@H](CC(N)=O)NC(=O)[C@H](CCC(N)=O)NC1=O [E-10] (H-CYIQNC[AMPB(E)]G-NH2; disulfide 1-6),94.6 ± 19 nM,3.1,–,80 ± 1%,–,–,–,–,–
CC[C@H](C)[C@@H]1NC(=O)[C@H](Cc2ccc(O)cc2)NC(=O)[C@@H](N)CSSC[C@@H](C(=O)NCc2ccc(/N=N/c3ccc(C(=O)N[C@@H](CC(C)C)C(=O)NCC(N)=O)cc3)cc2)NC(=O)[C@H](CC(N)=O)NC(=O)[C@H](CCC(N)=O)NC1=O [E-11] (H-CYIQNC[AMPB(E)]LG-NH2; disulfide 1-6),263 ± 21 nM,2.0,–,75 ± 1%,–,–,–,–,–
CC[C@H](C)[C@@H]1NC(=O)[C@H](Cc2ccc(/N=N\c3ccccc3)cc2)NC(=O)[C@@H](N)CSSC[C@@H](C(=O)N2CCC[C@H]2C(=O)N[C@@H](CC(C)C)C(=O)NCC(N)=O)NC(=O)[C@H](CC(N)=O)NC(=O)[C@H](CCC(N)=O)NC1=O [Z-8] (H-C[Phe(4-(Z)-phenylazo)]IQNCPLG-NH2; disulfide 1-6),3500 ± 1890 nM,1.3,–,35 ± 1%,–,–,–,–,–
CC[C@H](C)[C@@H]1NC(=O)[C@H](Cc2ccc(O)cc2)NC(=O)[C@@H](N)CSSC[C@@H](C(=O)N[C@@H](Cc2ccc(/N=N\c3ccccc3)cc2)C(=O)N[C@@H](CC(C)C)C(=O)NCC(N)=O)NC(=O)[C@H](CC(N)=O)NC(=O)[C@H](CCC(N)=O)NC1=O [Z-9] (H-CYIQNC[Phe(4-(Z)-phenylazo)]LG-NH2; disulfide 1-6),136 ± 6 nM,2.5,–,90 ± 1%,55 fold,–,–,–,–
CC[C@H](C)[C@@H]1NC(=O)[C@H](Cc2ccc(O)cc2)NC(=O)[C@@H](N)CSSC[C@@H](C(=O)NCc2ccc(/N=N\c3ccc(C(=O)NCC(N)=O)cc3)cc2)NC(=O)[C@H](CC(N)=O)NC(=O)[C@H](CCC(N)=O)NC1=O [Z-10] (H-CYIQNC[X2]G-NH2; disulfide 1-6),30.7 ± 4 nM,3.1,–,92%,12 fold,–,–,–,–
CC[C@H](C)[C@@H]1NC(=O)[C@H](Cc2ccc(O)cc2)NC(=O)[C@@H](N)CSSC[C@@H](C(=O)NCc2ccc(/N=N\c3ccc(C(=O)N[C@@H](CC(C)C)C(=O)NCC(N)=O)cc3)cc2)NC(=O)[C@H](CC(N)=O)NC(=O)[C@H](CCC(N)=O)NC1=O [Z-11] (H-CYIQNC[X2]LG-NH2; disulfide 1-6),134 ± 17 nM,2.0,–,86 ± 1%,55 fold,–,–,–,–
"[AzbC(m,m)^1,Dap^6]-VP [compound 17]",–,–,–,–,–,93%,88%,28.6 days,28.6 days
"[AzbC(m,o)^1,Dap^6]-VP [compound 16]",–,–,–,–,–,89%,83%,3.1 days,3.1 days
"[AzpC(m)^1,Dap^6]-VP [compound 19]",–,–,–,–,–,93%,87%,54.5 days,54.5 days
"[AzpC(o)^1,Dap^6]-VP [compound 18]",–,–,–,–,–,94%,82%,6.6 days,6.6 days

# — PMC10641831 (Journal of Medicinal Chemistry, 2023)
